Marks after values point to notes of the source that are not given here.
Assays:
onychomycosis = experiment: Treatment of onychomycosis with topical copper silicate (cream or solution), patient trial; type: in vivo, human; conditions: for Clinical - 100% clear / Clinical - New growth clear / Complete cure (KOH negative, culture negative and 100% clear) / Mycology (KOH negative and culture negative) / Mycology (KOH negative or culture negative): interim, applied twice daily
Protocol: Subjects, not already receiving anti-fungal treatment, were assessed for clinical diagnosis of onychomycosis and photographs and nail clippings were taken. Those testing positive for onychomycosis were admitted to the trial.
The anti-fungal composition (cream or solution) was applied to the infected nail twice daily for the duration of the treatment.
Estimates of the nail area involved were made during clinical visits and photographs were taken. Nail clippings were collected for KOH and dermatophyte culture. […] Results
The results presented hereunder are interim results of a 12 month study. Patients entered the trial and commenced their treatment at different dates. […] Patients were assessed at 0 (commencement). 6 weeks and 12 weeks.

Fusarium spp. = conditions: modal value, n=16
Epidermophyton floccosum = conditions: modal value, n=11
A. terrus = conditions: modal value, n=7
M. gypseum = conditions: modal value, n=9
Scedosporium spp. = conditions: modal value, n=5
T. mentagrophytes = conditions: modal value, n=12
Aspergillus flavus = conditions: modal value, n=12
C. krusei = conditions: modal value, n=1
[1] = test system: C. pseudotropicalis (kefyr); conditions: modal value, n=1
Candida albicans = conditions: modal value, n=10
[2] = test system: T. mentagrophytes var interdigitale; conditions: modal value, n=19
A. fumigatus = conditions: modal value, n=12
C. parasilosis = conditions: modal value, n=10
Microsporum canis = conditions: modal value, n=9
A. niger = conditions: modal value, n=14
C. glabrate = conditions: modal value, n=4
Scopulariopsis spp. = conditions: modal value, n=5
T. tonsurans = conditions: modal value, n=10
C. tropicalis = conditions: modal value, n=10
Trichophyton rubrum = conditions: modal value, n=26
[3] = Post-treatment Week 13 (N = 18)
[4] = Post-treatment Week 13 (N = 18), = 39 weeks
[5] = Post-treatment Week 26 (N = 18)
[6] = Treatment time Week 12 (N = 18)
[7] = Treatment time Week 26 (N = 18)

## copper silicate
onychomycosis; 13 weeks post-treatment
  Patients culture negative: 55%
onychomycosis; 26 weeks post treatment
  Patients "effectively treated": 22%
onychomycosis; [3]
  % Nail infected 0% (clear), number of patients: 3
  % Nail infected 1-10%, number of patients: 1
  % Nail infected 11-50%, number of patients: 6
  % Nail infected >50%, number of patients: 8
  Dermatophyte culture Positive, number of patients: 8
  Infecting organism T. mentagrophytes v. interdigitale, number of patients: 1
  Infecting organism T. rubrum, number of patients: 7
  KOH Negative, number of patients: 4
  KOH Positive, number of patients: 14
  New growth Clear, number of patients: 15
  New growth Not clear, number of patients: 3
  Outcome Complete cure, number of patients: 3
  Outcome Effective treatment, number of patients: 3
  Outcome Mycological cure, number of patients: 3
onychomycosis; [4]
  Dermatophyte culture Negative, number of patients: 10
  Outcome Mycological change (culture positive to culture negative), number of patients: 7
onychomycosis; Post-treatment Week 13 (N = 18), includes 1 patient that is KOH negative
  Outcome Not effective, number of patients: 8^@
onychomycosis; [5]
  % Nail infected 0% (clear), number of patients: 3
  % Nail infected 1-10%, number of patients: 2
  % Nail infected 11-50%, number of patients: 6
  % Nail infected >50%, number of patients: 7
  Dermatophyte culture Positive, number of patients: 9
  Infecting organism T. mentagrophytes v. interdigitale, number of patients: 1
  Infecting organism T. rubrum, number of patients: 8
  KOH Negative, number of patients: 6
  KOH Positive, number of patients: 12
  New growth Clear, number of patients: 15
  New growth Not clear, number of patients: 3
  Outcome Effective treatment, number of patients: 4
  Outcome Mycological change (culture positive to culture negative), number of patients: 5
  Outcome Mycological cure, number of patients: 4
onychomycosis; Post-treatment Week 26 (N = 18), = 52 weeks
  Outcome Complete cure, number of patients: 3
onychomycosis; Post-treatment Week 26 (N = 18), = 52 weeks, end of the trial
  Dermatophyte culture Negative, number of patients: 9
onychomycosis; Post-treatment Week 26 (N = 18), includes 1 patient that is KOH negative
  Outcome Not effective, number of patients: 9^@
onychomycosis; Treatment time Week 6 (N = 18)
  % Nail infected 0% (clear), number of patients: 0
  % Nail infected 1-10%, number of patients: 2
  % Nail infected 11-50%, number of patients: 5
  % Nail infected >50%, number of patients: 11
  Dermatophyte culture Negative, number of patients: 10
  Dermatophyte culture Positive, number of patients: 8
  Infecting organism T. mentagrophytes v. interdigitale, number of patients: 1
  Infecting organism T. rubrum, number of patients: 7
  KOH Negative, number of patients: 4
  KOH Positive, number of patients: 14
  New growth Clear, number of patients: 11
  New growth Not clear, number of patients: 7
  Outcome Complete cure, number of patients: 0
  Outcome Effective treatment, number of patients: 2
  Outcome Mycological change (culture positive to culture negative), number of patients: 6
  Outcome Mycological cure, number of patients: 4
onychomycosis; Treatment time Week 6 (N = 18), includes 2 patients that are KOH negative
  Outcome Not effective, number of patients: 8^#
onychomycosis; [6]
  % Nail infected 0% (clear), number of patients: 3
  % Nail infected 1-10%, number of patients: 1
  % Nail infected 11-50%, number of patients: 4
  % Nail infected >50%, number of patients: 10
  Dermatophyte culture Negative, number of patients: 11
  Dermatophyte culture Positive, number of patients: 7
  Infecting organism T. mentagrophytes v. interdigitale, number of patients: 1
  Infecting organism T. rubrum, number of patients: 6
  KOH Negative, number of patients: 4
  KOH Positive, number of patients: 14
  New growth Clear, number of patients: 16
  New growth Not clear, number of patients: 2
  Outcome Complete cure, number of patients: 2
  Outcome Effective treatment, number of patients: 3
  Outcome Mycological change (culture positive to culture negative), number of patients: 8
  Outcome Mycological cure, number of patients: 3
onychomycosis; Treatment time Week 12 (N = 18), includes 1 patient that is KOH negative
  Outcome Not effective, number of patients: 7^@
onychomycosis; [7]
  % Nail infected 0% (clear), number of patients: 3
  % Nail infected 1-10%, number of patients: 1
  % Nail infected 11-50%, number of patients: 8
  % Nail infected >50%, number of patients: 6
  Dermatophyte culture Negative, number of patients: 12
  Dermatophyte culture Positive, number of patients: 6
  Infecting organism T. mentagrophytes v. interdigitale, number of patients: 1
  Infecting organism T. rubrum, number of patients: 5
  KOH Negative, number of patients: 6
  KOH Positive, number of patients: 12
  New growth Clear, number of patients: 16
  New growth Not clear, number of patients: 2
  Outcome Complete cure, number of patients: 3
  Outcome Effective treatment, number of patients: 3
  Outcome Mycological change (culture positive to culture negative), number of patients: 7
  Outcome Mycological cure, number of patients: 5
onychomycosis; Treatment time Week 26 (N = 18), includes 1 patient that is KOH negative
  Outcome Not effective, number of patients: 6^@
onychomycosis; after 26 weeks
  "Mycological cure" patients: 28%
onychomycosis; at 26 weeks
  Patients with >50% of nail plate diseased having significant clinical improvement (reduction to <50% of the nail plate): 50%
onychomycosis; at 52 weeks
  "Mycological cure" rate: 22%
onychomycosis; end of the trial
  Patients culture negative: 50%
onychomycosis; end of treatment
  Patients culture negative: 67%
onychomycosis; 6 Weeks (n = 13)
  Clinical - 100% clear: 0 % of Patients
  Clinical - New growth clear: 61 % of Patients
  Complete cure (KOH negative, culture negative and 100% clear): 0 % of Patients
  Mycology (KOH negative and culture negative): 0 % of Patients
  Mycology (KOH negative or culture negative): 53 % of Patients
onychomycosis; 12 Weeks (n = 10)
  Clinical - 100% clear: 30 % of Patients
  Clinical - New growth clear: 70 % of Patients
  Complete cure (KOH negative, culture negative and 100% clear): 20 % of Patients
  Mycology (KOH negative and culture negative): 20 % of Patients
  Mycology (KOH negative or culture negative): 80 % of Patients
Fusarium spp.
  Minimum Fungicidal Concentration (MFC): 0.0700 % w/w as Cu
  Minimum Inhibitory Concentration (MIC): 0.0700 % w/w as Cu
Epidermophyton floccosum
  Minimum Fungicidal Concentration (MFC): 0.0350 % w/w as Cu
  Minimum Inhibitory Concentration (MIC): 0.0350 % w/w as Cu
A. terrus
  Minimum Fungicidal Concentration (MFC): >0.1400 % w/w as Cu
  Minimum Inhibitory Concentration (MIC): 0.0700 % w/w as Cu
M. gypseum
  Minimum Fungicidal Concentration (MFC): 0.1400 % w/w as Cu
  Minimum Inhibitory Concentration (MIC): 0.0350 % w/w as Cu
Scedosporium spp.
  Minimum Fungicidal Concentration (MFC): >0.1400 % w/w as Cu
  Minimum Inhibitory Concentration (MIC): 0.0350 % w/w as Cu
T. mentagrophytes
  Minimum Fungicidal Concentration (MFC): 0.0350 % w/w as Cu
  Minimum Inhibitory Concentration (MIC): 0.0175 % w/w as Cu
Aspergillus flavus
  Minimum Fungicidal Concentration (MFC): >0.1400 % w/w as Cu
  Minimum Inhibitory Concentration (MIC): 0.1400 % w/w as Cu
C. krusei
  Minimum Fungicidal Concentration (MFC): 0.0175 % w/w as Cu
  Minimum Inhibitory Concentration (MIC): 0.0175 % w/w as Cu
[1]
  Minimum Fungicidal Concentration (MFC): 0.0350 % w/w as Cu
  Minimum Inhibitory Concentration (MIC): 0.0350 % w/w as Cu
Candida albicans
  Minimum Fungicidal Concentration (MFC): 0.0700 % w/w as Cu
  Minimum Inhibitory Concentration (MIC): 0.0350 % w/w as Cu
[2]
  Minimum Fungicidal Concentration (MFC): 0.0350 % w/w as Cu
  Minimum Inhibitory Concentration (MIC): 0.0175 % w/w as Cu
A. fumigatus
  Minimum Fungicidal Concentration (MFC): >0.1400 % w/w as Cu
  Minimum Inhibitory Concentration (MIC): 0.0350 % w/w as Cu
C. parasilosis
  Minimum Fungicidal Concentration (MFC): 0.0350 % w/w as Cu
  Minimum Inhibitory Concentration (MIC): 0.0350 % w/w as Cu
Microsporum canis
  Minimum Fungicidal Concentration (MFC): 0.0700 % w/w as Cu
  Minimum Inhibitory Concentration (MIC): 0.0350 % w/w as Cu
A. niger
  Minimum Fungicidal Concentration (MFC): 0.1400 % w/w as Cu
  Minimum Inhibitory Concentration (MIC): 0.0350 % w/w as Cu
C. glabrate
  Minimum Fungicidal Concentration (MFC): 0.1400 % w/w as Cu
  Minimum Inhibitory Concentration (MIC): 0.0350 % w/w as Cu
Scopulariopsis spp.
  Minimum Fungicidal Concentration (MFC): >0.1400 % w/w as Cu
  Minimum Inhibitory Concentration (MIC): 0.0350 % w/w as Cu
T. tonsurans
  Minimum Fungicidal Concentration (MFC): 0.0350 % w/w as Cu
  Minimum Inhibitory Concentration (MIC): 0.0350 % w/w as Cu
C. tropicalis
  Minimum Fungicidal Concentration (MFC): 0.0700 % w/w as Cu
  Minimum Inhibitory Concentration (MIC): 0.0350 % w/w as Cu
Trichophyton rubrum
  Minimum Fungicidal Concentration (MFC): 0.0350 % w/w as Cu
  Minimum Inhibitory Concentration (MIC): 0.0175 % w/w as Cu

— patent US20050100561A1, “Use of topical compositions for the control of microbial diseases of the nail” (priority 2002, published 2005)
